From article PMC11589483, “Preparation and anti-colon cancer effect of a novel curcumin analogue (CA8): in vivo and in vitro evaluation” (Frontiers in Pharmacology, 2024)
Read-outs that look alike come from different tables or passages of the source.

What was measured:
[1] = tested on: Caco-2 cells; experiment: Apoptosis assay (Annexin V-FITC/propidium iodide flow cytometry); assay type: cell-based, human; details: 4, 8, 16 μM, 24 h
Method: The apoptotic effect of CA8 was assessed in Caco-2 cells according to the kit instructions. First, Caco-2 cells were treated with CA8 at dose of 4, 8, or 16 μM/L for 24 h. The cells were harvested and suspended in 500 μL annexin-binding buffer. Subsequently, the cells were stained with Annexin V-FITC for 15 min and then incubated with propidium iodide for 5 min at room temperature in the dark. Finally, all samples were evaluated via flow cytometry (FACS Calibur, BD, San Jose, CA, United States). The results obtained were analyzed using the FlowJo software, and the apoptotic rate was calculated.

[2] = tested on: AKT, JNK, and NF-κB signaling pathways and apoptosis-related proteins; experiment: Western blot of signaling and apoptosis proteins in Caco-2 cells; assay type: cell-based, human; details: Caco-2, 4, 8, 16 μM, 24 h, vs control
Method: The expression of apoptotic proteins and pathways was detected using western blot. Caco-2 cells treated with CA8 at a dose of 4, 8, or 16 μM/L for 24 h were collected and lysed with RIPA lysis buffer for 10 min. The concentration of total proteins was determined using a BCA protein quantitative kit. Total proteins were separated on an SDS-PAGE gel, transferred to PVDF membranes and incubated with 5% skim milk for 2 h. Subsequently, the PVDF membranes were incubated with primary antibodies (AKT 1:2000; Bcl-2 1:2000; Bax 1:5000; caspase-3 1:2,000; caspase-9 1:1000; P-AKT 1:1000; JNK 1:1000; P-JNK 1:1000; IKBα 1:2000; and β-actin 1:100000) at 4°C overnight. The membranes were rinsed three times with TBST and incubated with secondary antibodies (1:5000 dilution) for 2–3 h at room temperature. Finally, proteins were visualized using an ECL chemiluminescent kit (KF001, affinity). In the final step, the ImageJ software was used to analyze the results.

[3] = tested on: colon cancer cells Caco-2; experiment: MTT antiproliferative assay, Caco-2; assay type: cell-based, human; details: for IC50: Homo sapiens, read-out: IC50 Caco2
Method: (§1) The human cancer cell lines A549, HepG2, MCF-7, Caco-2, and HeLa and the normal human liver cell line LO2 were all obtained from Shanghai Cell Bank of China. All cells were cultured in RPMI 1640 or DMEM supplemented with 10% fetal bovine serum, 100 U/mL penicillin, and 100 μg/mL streptomycin and incubated at 37°C under 5% CO2 (HEPA incubator class100 Thermo company). The medium was replaced three times a week. Cells used in all were in the exponential growth phase.
(§2) The cell inhibition rate was evaluated using the MTT assay. Briefly, cells were seeded in a 96-well plate at a density of 3–4 × 10^3 cells per well and incubated at 37°C for 24 h. The MCACs to be tested were dissolved in dimethyl sulfoxide (DMSO, Merck, Germany) and diluted to five concentrations (3.75, 7.5, 15, 30, 60 μM/L) with RPMI 1640 medium, with each dose analyzed in quadruplicate. The concentration of DMSO was always maintained below 1‰, a concentration that is nontoxic to cells. After incubation for 24 or 48 h, MTT reagent (5 mg/mL) was added to each well and the samples were incubated for 3 h at 37°C in the dark. The absorbance of formazan crystals dissolved in 150 µL of DMSO was measured at 570 nm using a microplate reader to identify the cytotoxic effect of the analogues.

[4] = tested on: Caco-2 cells; experiment: Cell cycle analysis (flow cytometry); assay type: cell-based, human; details: 4, 8, 16 μM, 24 h
Method: Caco-2 cells treated with CA8 at dose of 4, 8, or 16 μM/L for 24 h, they were collected, washed with PBS, and fixed in 70% ethanol overnight. The fixed cells were washed twice with PBS, treated with RNase A (10 mg/mL) and resuspended in 50 μg/mL propidium iodide for staining. Finally, the cell cycle distribution was assessed via flow cytometry (BD Biosciences, CA).

[5] = Solubility in water by HPLC; assay type: physicochemical; details: 25°C, mass of solute dissolved at saturation in 100 g of solvent
Method: The solubility of the synthesized compounds in water was determined using high performance liquid chromatography (HPLC). First, 1.000 g of each compound was accurately weighed, placed in 100 g of water, and stirred at 25°C for a period of time. Then, the reaction system was allowed to stand for 1 h. The supernatant was quantitatively taken, diluted with methanol to volume, and centrifuged, and the solubility was determined using HPLC.

[6] = Pharmacokinetics evaluation after gavage; assay type: in vivo, Sprague Dawley (SD) rats; details: SD rats
Method: After the evaluation of the safety of CA8, 10 male Sprague Dawley (SD) rats were randomly divided into the CA8 and CU groups for the pharmacokinetic test ([Ye et al., 2020]). The rats were subjected to 1 week of adaptation and were fasted for 6 h before the experiment. CA8 (50 mg kg^−1) and CU (50 mg kg^−1) were administered via gavage. Blood samples were collected at 0.03, 0.08, 0.16, 0.25, 0.5, 1, 2, 4, 8 and 12 h and centrifuged at 5,000 rpm for 3 min to obtain the plasma. A mixture of ethyl acetate and methanol was then added to precipitate the proteins and separate the CA8 and CU from the plasma. The samples were then analyzed using HPLC.

[7] = tested on: liver cancer cells HepG2; experiment: MTT antiproliferative assay, HepG2; assay type: cell-based; details: Homo sapiens
Method: as §1, §2

[8] = tested on: lung cancer cells A549; experiment: MTT antiproliferative assay, A549; assay type: cell-based; details: Homo sapiens
Method: as §1, §2

[9] = tested on: Caco-2 xenograft tumors; experiment: In vivo anticancer activity, Caco-2 xenograft; details: Caco-2 xenograft; CA8 100 mg/kg, CU 100 mg/kg, tegafur 50 mg/kg, gavage every other day
Method: Twenty 5-week-old male BALB nude mice purchased from SPF (Beijing) Biotechnology Co., Ltd. were used for the in vivo pharmacodynamic experiment of CA8. Caco-2 cells (6 × 10^6 cells in 100 μL PBS) were harvested and subcutaneously injected into the right hip of the mice. Then, they were divided into four groups when the tumor volume reached 100 mm^3 and treated with saline, CU (100 mg/kg), tegafur (50 mg/kg), or CA8 (100 mg/kg) via gavage every other day. Tumor size and body weight were measured and recorded every other day. At the end of the experiment, the mice were sacrificed and tumors were harvested and weighed. Tumor volumes were calculated by measuring length (L) and width (W) according to the following formula: V = 0.5 × L × W^2. The tumor tissue was embedded in paraffin, cut into slices, stained with HE, and observed under a light microscope.

[10] = tested on: cervical cancer cells HeLa; experiment: MTT antiproliferative assay, HeLa; assay type: cell-based; details: Homo sapiens
Method: as §1, §2

[11] = tested on: breast cancer cells MCF-7; experiment: MTT antiproliferative assay, MCF-7; assay type: cell-based; details: Homo sapiens
Method: as §1, §2

[12] = tested on: Caco-2 cells; experiment: Clonogenic assay; assay type: cell-based, human; details: 4, 8, or 16 μM/L, 6 h exposure
Method: Caco-2 cells were seeded into a 6-well plate at a density of 1 × 10^3 cells per well and incubated overnight. Then, the medium was replaced, and CA8 was added at the prescribed concentrations (4, 8, or 16 μM/L). After 6 h, the drug-containing medium was replaced with RPMI 1640 medium.
Caco-2 cells in 6-well plates were incubated for 1–2 weeks until the appearance of the colonies, followed by staining with crystal violet and incubation for 1 h at room temperature. After staining, images were captured accordingly.

[13] = tested on: normal human liver cell line LO2; experiment: MTT assay, normal liver cells LO2; assay type: cell-based
Method: as §1, §2

[14] = design: method as in Al-Hujaily et al., 2011; details: ref Al-Hujaily et al., 2011; cited from earlier work

Compound: COc1cc(/C=C/C(=O)CC(=O)/C=C/c2ccc(O)c(OC)c2)ccc1O [CU, Curcumin]
- induction of apoptosis [1]: induced early and late apoptosis in a concentration-dependent manner
- expression of P-AKT [2]: inhibited the expression of P-AKT
- expression of P-JNK and IκBα [2]: induced the expression of P-JNK and IκBα in a concentration-dependent manner
- SI Caco2 ([3]; 48 h, logarithm of ratio IC50 LO2 / IC50 cancer cells): −0.08
- IC50 ([3]; Caco-2, 24 h): > 60 µM
- IC50 ([3]; Caco-2, 48 h): 33 ± 2.1 µM
- cell cycle arrest [4]: induced S-phase arrest only to a lesser extent
- Solubility [5]: 0.00017 mg/100g
- time after dosing until cleared from / still detected in plasma ([6]; oral 50 mg kg^−1): 2 h
- AUC(0-t) ([6]; oral (gavage) 50 mg kg^−1): 35,697.63 μg/L*min
- CLz ([6]; oral (gavage) 50 mg kg^−1): 0.90 L/min/kg
- Tmax ([6]; oral (gavage) 50 mg kg^−1): 30.00 min
- Vz ([6]; oral (gavage) 50 mg kg^−1): 97.58 L/kg
- Cmax ([6]; male, Sprague Dawley, rat, plasma, oral (gavage) 50 mg kg^−1): 380 ng/mL
- MRT last ([6]; male, Sprague Dawley, rat, plasma, oral (gavage) 50 mg kg^−1, read-out: MRT(0-t) (converted)): 54 min
- half-life ([6]; male, Sprague Dawley, rat, plasma, oral (gavage) 50 mg kg^−1, read-out: t1/2z): 74.8 min
- IC50 ([7]; HepG2, 24 h): 43.4 ± 2.9 µM
- IC50 ([7]; HepG2, 48 h): 27.4 ± 0.3 µM
- IC50 ([8]; A549, 24 h): 37.2 ± 2.9 µM
- IC50 ([8]; A549, 48 h): 34.4 ± 1.5 µM
- inhibitory effect on tumor growth [9]: CA8 > tegafur > CU
- IC50 ([10]; 24 h): 58.3 ± 2.2 µM
- IC50 ([10]; 48 h): 17.3 ± 0.8 µM
- IC50 ([11]; MCF7, 24 h): 40 ± 2.7 µM
- IC50 ([11]; MCF7, 48 h): 22.3 ± 1.6 µM
- Caco-2 colony formation [12]: did not have a significant inhibitory effect
- IC50 ([13]; 24 h): > 60 µM
- IC50 ([13]; 48 h): 27.6 ± 1.36 µM

Compound: COc1cc(C=C2CN(C)CC(=Cc3ccc(O)c(OC)c3)C2=O)ccc1O [PAC]
- solubility in water, times that of CU [14]: 27 times
